Results as given in ChEMBL document CHEMBL1201862, “PubChem BioAssay data set” (2004).
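Test compounds were applied to cells in 96-well plates for 48 hours at 5 doses. GI50 = concentration required for 50% inhibition of growth.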 Calls of active or inactive are those of the source. No stated cut-off is given here; in the data, active = GI50 up to about 1.1 µM and inactive = higher.

What was measured:
Assay in all cases: NCI tumour cell line growth inhibition, 48 h
NCI-H460 = tested on: NCI-H460
SW-620 = tested on: SW-620
ACHN = tested on: ACHN
SK-MEL-5 = tested on: SK-MEL-5
NCI-H226 = tested on: NCI-H226
HT-29 = tested on: HT-29
SN12C = tested on: SN12C
786-0 = tested on: 786-0
HCC 2998 = tested on: HCC 2998
SK-OV-3 = tested on: SK-OV-3
MDA-MB-231 = tested on: MDA-MB-231
HOP-62 = tested on: HOP-62
K562 = tested on: K562
MOLT-4 = tested on: MOLT-4
HCT-116 = tested on: HCT-116
SK-MEL-28 = tested on: SK-MEL-28
OVCAR-8 = tested on: OVCAR-8

Measured: GI50

O=C1CC(O)c2cscc21 (stereo not drawn)
inactive: NCI-H460 > 100 µM | SW-620 37.8 µM | ACHN > 100 µM | SK-MEL-5 > 100 µM | NCI-H226 > 100 µM | HT-29 > 100 µM | SN12C > 100 µM | 786-0 > 100 µM | HCC 2998 32.2 µM | SK-OV-3 > 100 µM | MDA-MB-231 > 100 µM | HOP-62 > 100 µM | K562 38.1 µM | MOLT-4 35.2 µM | HCT-116 > 100 µM | SK-MEL-28 > 100 µM | OVCAR-8 65.9 µM

CCC/C(Cl)=N/OC(=O)Nc1cc(C(F)(F)F)ccc1OC
inactive: NCI-H460 19.5 µM | SW-620 3.55 µM | ACHN 13.2 µM | SK-MEL-5 7.93 µM | NCI-H226 15.5 µM | HT-29 20.7 µM | SN12C 14.3 µM | 786-0 6.05 µM | HCC 2998 16.9 µM | SK-OV-3 6.17 µM | MDA-MB-231 13.1 µM | HOP-62 18.1 µM | K562 1.79 µM | MOLT-4 2.1 µM | HCT-116 9.89 µM | SK-MEL-28 14.5 µM | OVCAR-8 16.1 µM

Cc1cccc(Nc2nc3ccccc3nc2NS(=O)(=O)c2ccc(N)cc2)c1
inactive: NCI-H460 32.5 µM | SW-620 17.6 µM | ACHN 32.2 µM | SK-MEL-5 35.5 µM | NCI-H226 60.4 µM | HT-29 48.3 µM | SN12C 36.6 µM | 786-0 30 µM | HCC 2998 30.9 µM | SK-OV-3 54.8 µM | MDA-MB-231 36.3 µM | HOP-62 25.7 µM | K562 25.2 µM | MOLT-4 11.7 µM | HCT-116 33.1 µM | SK-MEL-28 27.7 µM | OVCAR-8 39.6 µM

COc1cc(/C=C/C(=O)OCC23CC[C@@]4(C(=O)O)CCC(C)[C@H](C)C4C2=CCC2[C@@]4(C)CC[C@H](O)C(C)(C)C4CC[C@]23C)ccc1O (stereo partly drawn)
inactive: NCI-H460 11.4 µM | SW-620 37.7 µM | ACHN 3.05 µM | SK-MEL-5 16.1 µM | NCI-H226 27.5 µM | HT-29 20.4 µM | SN12C 8.09 µM | 786-0 11 µM | HCC 2998 54.1 µM | SK-OV-3 29 µM | MDA-MB-231 46.3 µM | HOP-62 13.4 µM | K562 27 µM | MOLT-4 6.68 µM | HCT-116 17.5 µM | SK-MEL-28 37.8 µM | OVCAR-8 15.9 µM
